Experimental data reported in patent US5229116A, “Administration of pharmaceutical agents” (priority 1989, dated 1993).

Assay: In vivo pharmacokinetic studies of dihydropyridines given orally with water, grapefruit juice or orange juice (plasma concentration, GC analysis)
Set-up: species or system human (healthy subjects, hypertensive patients)
Settings: human, po, mean; for AUC(0-inf): zero to infinity
Description: Hypertensive patients and healthy volunteers were given commercially available formulations of dihydropyridines in the morning after an overnight fast. The tablets were taken either with water, orange juice, or, as a source of flavonoids, 200 ml grapefruit juice. This contains about 150 mg of flavonoids, either as aglycones or glycosides.
The protocols for the five studies are shown on Table 2.
Blood samples for the analysis of the dihydropyridine and the first metabolite were drawn before and at frequent intervals after dose via an indwelling antecubital cannula. Samples were centrifuged and the plasma frozen (-20° C.) until analysis.
The maximum plasma concentration, Cmax, and the corresponding time to reach peak concentration, tmax, were recorded from the individual plasma concentration time curves of the dihydropyridine and its first metabolite. The area from zero to infinity was calculated adding the residual area to the area from zero to last determinable plasma concentration value by using the slope of the log plasma concentration time curve in the 3 to 8 hour interval after dose.

[1] = plasma, 10 mg, nitrendipine 10 mg tablets, healthy subjects, n = 3, grapefruit juice
[2] = plasma, 10 mg, nitrendipine 10 mg tablets, healthy subjects, n = 3, water
[3] = plasma, felodipine ER tablets, healthy subjects, n = 9, grapefruit juice
[4] = plasma, felodipine ER tablets, healthy subjects, n = 9, water
[5] = plasma, felodipine plain tablets, healthy subjects, n = 9, grapefruit juice
[6] = plasma, felodipine plain tablets, healthy subjects, n = 9, water
[7] = plasma, felodipine plain tablets, patients, n = 6, grapefruit juice
[8] = plasma, felodipine plain tablets, patients, n = 6, orange juice
[9] = plasma, felodipine plain tablets, patients, n = 6, water

Work on CCOC(=O)C1=C(C)NC(C)=C(C(=O)OC)C1c1cccc([N+](=O)[O-])c1 (stereo not drawn) [Nitrendipine] yielded a Tmax (in vivo, 10 mg, nitrendipine 10 mg tablets, healthy subjects, n = 3, grapefruit juice) of 1.3 ± 0.5 h, a Tmax (in vivo, 10 mg, nitrendipine 10 mg tablets, healthy subjects, n = 3, water) of 1.5 h and a Cmax [1] of 8.9 ± 4.8 nM. The AUC(0-inf) [1] was 0.035 ± 0.0195 µM·h, the Cmax [2] was 3.7 ± 1.8 nM and the AUC(0-inf) [2] was 0.0151 ± 0.0058 µM·h.
In the case of CCOC(=O)C1=C(C)NC(C)=C(C(=O)OC)C1c1cccc(Cl)c1Cl (stereo not drawn) [Felodipine], the Cmax [3] is reported as 8.9 ± 3.3 nM, the Tmax [3] is reported as 3.2 ± 0.8 h and the AUC(0-inf) [3] is reported as 0.0478 ± 0.0157 µM·h. The Cmax [4] was 3.4 ± 1.6 nM, the Tmax [4] was 3.4 ± 0.9 h and the AUC(0-inf) [4] was 0.0274 ± 0.0123 µM·h. For the same compound, the Cmax [5] was 16.3 ± 7.1 nM, the Tmax [5] was 2.1 ± 0.9 h and the AUC(0-inf) [5] was 0.065 ± 0.0263 µM·h. The Cmax [6] was 6.6 ± 3.6 nM, the Tmax [6] was 1.3 ± 0.6 h and the AUC(0-inf) [6] was 0.0228 ± 0.0106 µM·h. It also gave a Cmax [7] of 28.7 ± 7.6 nM, a Tmax [7] of 2.1 ± 0.5 h and an AUC(0-inf) [7] of 0.121 ± 0.045 µM·h. The Cmax [8] was 16.4 ± 7.8 nM, the Tmax [8] was 1.9 ± 0.1 h and the AUC(0-inf) [8] was 0.0514 ± 0.0222 µM·h. The Cmax [9] was 13.2 ± 5 nM, the Tmax [9] was 1.1 ± 0.5 h and the AUC(0-inf) [9] was 0.0484 ± 0.0237 µM·h.
